US6759238B1, “Multidrug resistance associated proteins and uses thereof” (priority 1999, dated 2004)
“And” between values parts separate entries of the source, which are not always exact repeats. Equal values may be shown once. Read-outs that look alike come from different tables or passages of the source.

Key:
[1] = Efflux of [3H]-AZT and its metabolites; assay type: in vitro ADME, human; settings: human, t½ for intracellular AZT, CEM-r1
Procedure: (§1) Cells were incubated for 60 minutes with [^3H]-AZT (10 μM) after which they were washed free of radioactivity, resuspended in drug-free medium and the intracellular and the extracellular concentration of [^3H]-AZT were measured. […] At least 80% of the AZTMP present intracellularly in CEM-r1 cells was excreted into the medium in 10 minutes (FIG. 6A).
(§2) Referring to Table 6 in greater detail, efflux kinetics were studied. Transport analysis of PMEA was conducted as previously described^48. […] The cells were then washed free of radioactivity and then incubated in drug-free medium in the presence of sodium azide and 2-deoxy-D-glucose. At various time periods, the amount of intracellular AZTMP was measured. As reported in Table 6, depletion of ATP led to an inhibition of AZTMP efflux (i.e. a significant accumulation of AZTMP in the CEM-r1 cells but not in the CEM-SS cells).
(§3) The suspension was centrifuged at 3,300 rpm for 7 minutes. All but 1 ml of the supernatant medium containing the free drug was aspirated. […] The cell pellet was then washed with ice-cold medium and resuspended at the same concentration in drug-free medium and maintained at 37° C. […] An aliquot of the top layer (cell free media) was analyzed for the quantitation of AZT and its metabolites.

CEM-SS and CEM-r1 cells = assay: Uptake of [3H]-AZT; assay type: in vitro ADME, human; settings: 10 μM and 100 μM, up to 120 seconds
Procedure: At various time periods (0, 10, 20, 30, 40, 60, 90, 120 seconds) from the start of the incubation, aliquots of the cell suspension were removed and centrifuged through Nyosil 50 (W. F. Nye, Inc.,New Bedford, Ma.) at 14,000×g for 60 seconds at 4° C.

[2] = Efflux of [3H]-AZT and its metabolites; assay type: in vitro ADME, human; settings: human, t½ for intracellular AZT, CEM-SS
Procedure: as §1, §2, §3

CEM-SS cells [3] = assay: Phosphorylation of AZT; assay type: in vitro ADME, human; settings: 10 μM AZT
Procedure: (§4) The appearance of the phosphorylated metabolites into the medium was also determined in both the cell lines. AZTDP and AZTTP were not detected in the medium of either CEM-SS or CEM-r1 cells. However, the amount of AZTMP accumulated in the media was approximately 3-fold higher in CEM-r1 cells than in CEM-SS cells.
(§5) The cartridges were conditioned with 10% MeOH Ammonium Phosphate Buffer (5 mM, pH 4.0). The sample was loaded onto the column. […] AZTDP and AZTTP were eluted with 10% MeOH Ammonium Phosphate Buffer (700 mm, pH 4.6).

CEM-r1 cells [4] = assay: Phosphorylation of AZT; assay type: in vitro ADME, human; settings: CEM-r1, 10 μM AZT
Procedure: as §4, §5

[5] = test system: HIV-1IIIB in CEM-r1 cells; assay: Antiviral activity (ED50, RT / p24 assay) in resistant cells; assay type: cell-based
Description: (§6) As used herein, “pM” means picomolar, “nM” means nanmolar, “μM, means micromolar, “mM” means millimolar, “ul” or “μl” mean microliter, “ml” means milliliter, “l” means liter. […] “IC50” means the inhibitory concentration at which growth is arrested by 50 percent.
(§7) The two cell lines, CEM-SS and CEM-r1 were infected with HIV-IMB at a multiplicity of 0.01, and cultured for 6 days in the presence and absence of different concentrations of test drugs. The extent of virus production was monitored by in in-house p24 antigen capture assay (50).
The antiviral effects of the different drugs were monitored by RT assays according to previously described procedures (20, 21). CEM-SS or CEM-r1 cells were infected with an inoculum of HIV-1IIIB standardized to contain 1 RT cpm/cell, and the virus-infected cells were seeded at a concentration of 0.2×10^6 cells/ml in medium containing varying concentrations of PMEA (or other test compounds). After 5 days of incubation, the RT activity of the culture supernates was determined by previously described procedures (22). […] The reaction was initiated by addition of 10 ul of virus-containing tissue culture supernatant. After 1 hr of incubation, 10 ul of the reaction mixture were spotted on a Whatman DE-81 tilter paper, air dried, and washed four times with 2×standard saline citrate (0.3 M NaCl, 0.03 M sodium citrate). The filter papers were dried, transferred to a plastic bag containing scintillation cocktail, sealed, and counted in an LKB Betaplate reader. The drug concentrations yielding half-maximal RT activity (ED50) was calculated as a measure of the antiviral efficacy of the test compounds, using the nonlinear curve-fitting software Enzfitter (Elsevier Biosoft, Cambridge, UK).

[6] = Cytotoxicity assay (growth inhibition, Coulter counter); settings: human
Procedure: (§8) Selection for PMEA resistance was carried out by exposing CEM-SS cells in culture to increasing concentrations of PMEA, over several months.
(§9) The IC50 values were obtained after 2 days of culture. Each result is the mean of one representative experiment performed in duplicate. The cultures with the purine nucleosides adenosine, 2′-deoxyadenosine, and arabinosyladenine contained 5 μM deoxycoformycin to inhibit adenosine deaminase activity.
(§10) All assays were performed in 24-well tissue culture plates (Costar, Cambridge, Ma.). […] At the end of the incubation, the cell concentrations, sizes, and volumes were counted in a Coulter counter (Coulter Electronics, Hialeah. Fla.).

CEM-r1 cells [7] = assay: as above
Procedure: as §8, §9, §10

[8] = test system: HIV-1IIIB in CEM-SS cells; assay: Antiviral activity (ED50, RT / p24 assay) in wild type cells; assay type: cell-based; settings: Human immunodeficiency virus 1, WT (CEM-SS) cells
Description: as §6, §7
The antiviral effects of the different drugs were monitored by RT assays according to previously described procedures (20, 21). […] After 5 days of incubation, the RT activity of the culture supernates was determined by previously described procedures (22). […] The filter papers were dried, transferred to a plastic bag containing scintillation cocktail, sealed, and counted in an LKB Betaplate reader. The drug concentrations yielding half-maximal RT activity (ED50) was calculated as a measure of the antiviral efficacy of the test compounds, using the nonlinear curve-fitting software Enzfitter (Elsevier Biosoft, Cambridge, UK).

CEM-SS cells [9] = assay: Cytotoxicity assay (growth inhibition, Coulter counter)
Procedure: (§11) […] Each result is the mean of one representative experiment performed in duplicate. The cultures with the purine nucleosides adenosine, 2′-deoxyadenosine, and arabinosyladenine contained 5 μM deoxycoformycin to inhibit adenosine deaminase activity.
as §10

[10] = as above; settings: human, CEM-SS cells (wild type, parental)
Procedure: as §11, §10

CEM-SS cells [11] = assay: Efflux of PMEA from bispom-PMEA loaded cells; assay type: in vitro ADME, human; settings: for Efflux kinetics, PMEA: CEMss
Procedure: (§12) To examine whether the resistant cells could be altered in their capacity to retain the phosphonate analog, the clearance of [^3H]PMEA and its metabolites from CEM-SS and CME-r1 cells was determined. […] Aliquots of cells and medium sampled at different intervals over a period of 2 hr were analyzed by HPLC, and the results are shown in FIG. 4. […] Some of this clearance was probably due to the anabolism of PMEA, because the PMEAp- and PMEApp-associated radioactivity continued to accumulate within the cells, but the majority of the radioactivity was excreted into the medium as PMEA. In contrast to the results with parental cells, loss of intracellular PMEA-associated radioactivity in the resistant CEM-r1 cells was extremely rapid and the majority of the radioactivity within the cells was excreted into the medium within 20-30 minutes of incubation (FIG. 4).
(§13) Both CEM-SS and CME-r1 cells were incubated for 3 minutes with increasing concentrations (range 0.07 mM to 8.80 mM) of the prodrug for the selecting agent, Bis(POM)PMEA. After incubation, the cells were pelleted and reconstituted in drug-free medium, and the amount of PMEA present in the medium and intracellularly was measured 15 minutes after resuspension. The amount of PMEA effluxing out into the medium at 15 minutes increased initially with increasing concentration (FIG. 7A).
as §2
(§14) At the indicated times, extracts were prepared from the cells and the medium, and the prodrug and its various nucleoside/nucleotide metabolites were analyzed by HPLC as described previously (24).

CEM-SS cells [12] = assay: Uptake and metabolism of [3H]bispom-PMEA; settings: CEM-SS, 1 μM [3H]bispom-PMEA, 15 minutes
Procedure: (§15) Therefore, the metabolism of [^3H]bispom-PMEA (15), a lipophilic prodrug of PMEA, was analyzed in the two cell lines in order to further examine the mechanism of resistance in the mutant cell line.

CEM-r1 cells [13] = assay: Uptake and metabolism of [3H]bispom-PMEA
Procedure: as §15

CEM-SS cells [14] = assay: Uptake and metabolism of [3H]PMEA; settings: 10 μM [3H]PMEA
Procedure: (§16) The mutant and parental cells were incubated with 10 μM [^3H]PMEA and at various times were analyzed for intracellular levels of PMEA and its metabolites by Partisil SAX HPLC. […] The metabolism of [^3H]PMEA was also examined in both cell lines after longer periods (i.e., 8 and 12 hr) of incubation with 10 μM [^3H]PMEA.
(§17) Exponentially growing cultures were incubated with 10 μM [^3H] PMEA for 8 or 12 hr and the cell extracts were analyzed for PMEA and its metabolites by ion exchange HPLC, as described.
(§18) Exponentially growing CEM-SS and CEM-r1 cells were harvested by centrifugation, resuspended at 1×10^6 cells/ml in fresh medium in the presence of [^3H]PMEA or [^3H]bispom-PMEA, and incubated at 37° C. At the indicated time points, aliquots of the cells were removed and centrifuged through Nyosil 50 (W. F. Nye, Inc., New Bedford, Ma.) at 13,000×g for 60 seconds at 4° C. When bispom-PMEA was investigated, an aliquot of the cell-free medium was also removed and analyzed by HPLC for determination of extracellular metabolites. The cell pellet was extracted with 70% ice-cold methanol and the aqueous phase was collected and analyzed for intracellular tritiated PMEA or tritiated bispom-PMEA and their metabolites by using HPLC analysis, essentially as described previously (23, 24).

CEM-r1 cells [15] = assay: Uptake and metabolism of [3H]PMEA; settings: for Intracellular levels: CEM-r1, 10 μM [3H]PMEA
Procedure: as §16, §17, §18

CaCo-2 cells = assay: PMEA transport in transwell culture; assay type: in vitro ADME; settings: CaCo-2
Description: A transwell culture which is permissive for cellular polarization may be used to measure the compartment to compartment flux of putative substrates. […] In addition, it is possible that expression of MPR4 depending if it is basal or apical (and this may vary by organ cultured) may determine if PMEA or PMEA-like drugs are absorbed.

CEM-r1 cells [16] = assay: Efflux of PMEA from bispom-PMEA loaded cells; assay type: in vitro ADME, human
Procedure: as §12, §13
CEM-r1 cells were incubated with 0.07-8.8 mM Bis(POM)PMEA for 3 minutes. The cells were pelleted and reconstituted in either drug-free medium or in medium containing 0.5 mM PMEA, and the amount of PMEA present in the medium and intracellularly was measured 15 minutes after resuspension.
as §2, §14

[17] = CEM-r1, 1 μM [3H]bispom-PMEA, 15 minutes

Compound: Cc1cn([C@H]2C[C@H](N=[N+]=[N-])[C@@H](CO)O2)c(=O)[nH]c1=O [AZT, zidovudine]
- half-life at 10 μM [1]: 6.5 min
- Cellular uptake in the two cell lines (CEM-SS and CEM-r1 cells): similar
- half-life at 10 μM [2]: 8.1 min
- Intracellular Concentration (CEM-SS cells [3]; 4 hours): 10 µM
- Intracellular Concentration (CEM-SS cells [3]; 8 hours): 8 µM
- Intracellular Concentration (CEM-SS cells [3]; 24 hours): 10 µM
- Intracellular Concentration (CEM-r1 cells [4]; 8 hours): 5.2 µM
- Intracellular Concentration (CEM-r1 cells [4]; 24 hours): 4.3 µM
- EC50 ([5]; Human immunodeficiency virus 1, CEM-r1 cells, HIV): 0.14 µM
- IC50 at 48 h [6]: 3000 µM
- IC50 (CEM-r1 cells [7]; Homo sapiens, 24 h, read-out: Drug sensitivity (concentration to inhibit 50% growth)): 3000 µM
- EC50 [8]: 0.006 µM
- IC50 (CEM-SS cells [9]; Homo sapiens, CEM-SS, 24 h, read-out: Drug sensitivity (concentration to inhibit 50% growth)): 500 µM
- IC50 at 48 h [10]: 500 µM

Compound: Nc1ncnc2c1ncn2CCOCP(=O)(O)O [PMEA, 9-(2phosphonylmethoxyethyl)adenine]
- Efflux kinetics, PMEA (CEM-SS cells [11]; Azide + Deoxyglucose): >26 min
- Efflux kinetics, PMEA (CEM-SS cells [11]; no treatment): >26 min
- Rate of efflux (CEM-SS cells [11]; parental CEM-SS cells): 0.4 pmol/min/10^6 cells
- Time to half-maximal clearance of intracellular radioactivity (CEM-SS cells [11]; parental CEM-SS cells, loaded with 1 μM [3H]bispom-PMEA, drug-free medium): about 60 min
- Metabolite Levels, Cells (CEM-SS cells [12]): 33.1 µM
- Metabolite Levels, Medium (CEM-SS cells [12]): 4.8 nM
- Levels in CEM-r1 cells relative to those seen in parental cells (CEM-r1 cells [13]; 1 μM [3H]bispom-PMEA, 15 min): about one third
- Metabolite Levels, Cells (CEM-r1 cells [13]; [17]): 13.3 µM
- Metabolite Levels, Medium (CEM-r1 cells [13]; [17]): 23.2 nM
- Levels of extracellular PMEA, CEM-r1 vs parental CEM-SS (CEM-r1 cells [13]; medium, 1 μM [3H]bispom-PMEA, 15 min): ~5 fold
- Intracellular levels (CEM-SS cells [14]; 8 hr): 1.7 µM
- Intracellular levels (CEM-SS cells [14]; 12 hr): 2.5 µM
- Fold Resistance (antiviral activity) ([5]; CEM-r1 vs WT): >150
- IC50 (CEM-r1 cells [7]; CEM-r1, 2 days of culture (Table 3)): 6200 µM
- Relative Resistance (CEM-r1 cells [7]; CEM-r1 vs CEM-SS (Table 3)): 182
- Resistance of CEM-r1 cells to the cytotoxic effects, compared with the parental cells (CEM-r1 cells [7]; CEM-r1 vs parental CEM-SS): ~250 fold and > 250 fold
- Fold Resistance (cytotoxicity) (CEM-r1 cells [7]; ratio of IC50 of resistant line to IC50 of wild type): 250
- IC50 (CEM-r1 cells [7]; read-out: Cytotoxicity IC50, CEM-r1 cells (Table 5)): 20000 µM
- Intracellular levels (CEM-r1 cells [15]; 8 hr): 1.0 µM
- Intracellular levels (CEM-r1 cells [15]; 12 hr): 1 µM and 0.99 µM
- Intracellular level in CEM-r1 as percent of the wildtype level (CEM-r1 cells [15]; CEM-r1 vs CEM-SS, 8 hr): (56%)
- Cross-resistance of MDR mutant CEM/VLB100 (CEM/VLB100): did not exhibit any cross-resistance
- Direction of transport in transwell culture (CaCo-2 cells): more rapidly transported from the apical to the basal side
- Increase in rate of efflux, CEM-r1 vs CEM-SS (CEM-r1 cells [16]): ~7 fold
- Amount of PMEA effluxed in the presence or absence of PMEA in the medium (CEM-r1 cells [16]; CEM-r1, medium with 0.5 mM PMEA vs drug-free): no significant difference
- Time within which the majority of the radioactivity was excreted into the medium (CEM-r1 cells [16]; CEM-r1 cells, loaded with 2 μM [3H]bispom-PMEA, drug-free medium): 20 to 30 min
- Efflux kinetics, PMEA (CEM-r1 cells [16]; CEMr-1, Azide + Deoxyglucose): >26 min
- Efflux kinetics, PMEA (CEM-r1 cells [16]; CEMr-1, no treatment): 4.4 min
- Rate of efflux (CEM-r1 cells [16]; resistant CEM-r1 cells): 2.55 pmol/min/10^6
- IC50 (CEM-SS cells [9]; CEM-SS, 2 days of culture (Table 3)): 34 µM
- IC50 (CEM-SS cells [9]; read-out: Cytotoxicity IC50, WT (CEM-SS) cells (Table 5)): 80 µM
- IC50 (CEM-SS cells [9]; read-out: Drug sensitivity (concentration to inhibit 50% growth), CEMss, 24 h exposure (Table 6)): 80 µM
